Assay results taken from ChEMBL document CHEMBL3352592, “The antileishmanial activity of isoforms 6- and 8-selective histone deacetylase inhibitors” (Bioorg Med Chem Lett, 2014).
Converted amounts (≈) assume the structure as drawn.

Experiments:
THP-1 = assay: Cytotoxicity against human THP1 cells after 48 hrs by Alamar blue assay; type: ADME, cell-based; conditions: THP-1, 48 h
Leishmania donovani [1] = assay: Antileishmanial activity against amastigote stage of Leishmania donovani infected in human THP1 cells after 48 hrs by Alamar blue assay; type: functional, organism-based; conditions: THP-1, 48 h
Leishmania donovani [2] = assay: Antileishmanial activity against axenic amastigote stage of Leishmania donovani after 72 hrs by Alamar blue assay; type: functional, organism-based
Leishmania donovani [3] = assay: Antileishmanial activity against promastigote stage of Leishmania donovani after 72 hrs by Alamar blue assay; type: functional, organism-based
Leishmania donovani [4] = assay: Selectivity ratio of IC50 for axenic amastigote stage of Leishmania donovani to IC50 for amastigote stage of Leishmania donovani infected in human THP1 cells; type: functional, THP-1
[5] = target: T1, Protein deacetylase HDAC6 (Homo sapiens, UniProt Q9UBN7); assay: Inhibition of HDAC6 in human LNCAP cells assessed as tubulin acetylation by Western blot analysis; type: cell-based
T1 sequence (Q9UBN7 whole entry): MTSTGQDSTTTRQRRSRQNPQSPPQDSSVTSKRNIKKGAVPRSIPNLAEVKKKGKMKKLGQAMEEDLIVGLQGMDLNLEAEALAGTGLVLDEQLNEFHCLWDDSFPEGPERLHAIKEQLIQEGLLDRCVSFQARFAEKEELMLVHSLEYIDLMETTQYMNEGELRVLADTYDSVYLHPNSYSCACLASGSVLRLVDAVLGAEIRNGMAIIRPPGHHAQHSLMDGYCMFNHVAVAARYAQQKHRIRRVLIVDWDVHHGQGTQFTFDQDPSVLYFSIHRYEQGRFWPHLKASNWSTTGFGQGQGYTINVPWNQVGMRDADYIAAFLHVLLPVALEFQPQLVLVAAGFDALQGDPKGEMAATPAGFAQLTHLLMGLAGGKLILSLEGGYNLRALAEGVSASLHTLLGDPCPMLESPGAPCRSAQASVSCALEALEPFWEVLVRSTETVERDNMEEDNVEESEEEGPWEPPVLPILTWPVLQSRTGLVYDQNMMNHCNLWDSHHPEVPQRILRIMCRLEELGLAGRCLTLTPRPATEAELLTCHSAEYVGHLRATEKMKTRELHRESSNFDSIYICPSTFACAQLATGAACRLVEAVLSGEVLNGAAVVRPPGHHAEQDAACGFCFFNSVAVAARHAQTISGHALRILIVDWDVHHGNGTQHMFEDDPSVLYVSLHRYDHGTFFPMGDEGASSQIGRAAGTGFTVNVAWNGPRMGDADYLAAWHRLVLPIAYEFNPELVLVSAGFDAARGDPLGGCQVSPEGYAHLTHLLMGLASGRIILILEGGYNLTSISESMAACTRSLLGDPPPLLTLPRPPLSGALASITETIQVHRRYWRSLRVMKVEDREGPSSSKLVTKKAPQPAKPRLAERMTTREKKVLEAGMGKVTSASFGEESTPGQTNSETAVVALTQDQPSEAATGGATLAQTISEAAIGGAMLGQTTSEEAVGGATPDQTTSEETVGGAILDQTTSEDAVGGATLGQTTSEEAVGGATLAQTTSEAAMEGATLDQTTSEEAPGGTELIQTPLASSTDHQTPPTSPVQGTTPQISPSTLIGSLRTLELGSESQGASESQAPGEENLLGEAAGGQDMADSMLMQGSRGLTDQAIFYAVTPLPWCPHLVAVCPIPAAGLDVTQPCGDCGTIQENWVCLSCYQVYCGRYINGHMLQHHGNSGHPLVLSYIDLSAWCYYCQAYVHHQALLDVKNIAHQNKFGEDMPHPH

DU-145 = assay: Cytotoxicity against human DU145 cells; type: functional, cell-based

| IC50 [5] | SMILES | IC50 (THP-1) | IC50 (Leishmania donovani [1]) | IC50 (Leishmania donovani [2]) | IC50 (Leishmania donovani [3]) | Ratio IC50 (Leishmania donovani [4]) | IC50 (DU-145) |
| --- | --- | --- | --- | --- | --- | --- | --- |
|  | COc1ccc(Cn2ccc3ccc(C(=O)NO)cc32)cc1 | > 10 µg/mL | > 10 µg/mL | > 40 µg/mL |  |  |  |
|  | O=c1c(O)cccn1Cc1ccc(-c2ccccc2)cc1 | > 10 µg/mL | 1.7 µg/mL (≈ 6.13 µM) | 30.9 µg/mL (≈ 111 µM) | 6.8 µg/mL (≈ 24.5 µM) |  |  |
|  | O=c1c(O)cccn1Cc1ccccc1 | > 10 µg/mL | > 10 µg/mL | > 40 µg/mL | 9.3 µg/mL (≈ 46.2 µM) |  |  |
|  | N#Cc1cccc(-c2ccc(Cn3cccc(O)c3=O)cc2)c1 | > 10 µg/mL | 2.3 µg/mL (≈ 7.61 µM) | > 40 µg/mL | 9 µg/mL (≈ 29.8 µM) |  |  |
|  | Cc1ccc(-c2ccc(Cn3cccc(O)c3=O)cc2)cc1 | > 10 µg/mL | > 10 µg/mL | 29 µg/mL (≈ 99.5 µM) | 6 µg/mL (≈ 20.6 µM) |  |  |
|  | Cc1cccc(-c2ccc(Cn3cccc(O)c3=O)cc2)c1 | > 10 µg/mL | > 10 µg/mL | 32.5 µg/mL (≈ 112 µM) | 12.6 µg/mL (≈ 43.2 µM) |  |  |
|  | Cc1ccccc1-c1ccc(Cn2cccc(O)c2=O)cc1 | > 10 µg/mL | > 10 µg/mL | 31.6 µg/mL (≈ 108 µM) | 27.6 µg/mL (≈ 94.7 µM) |  |  |
|  | CN(C)c1ccc(-c2ccc(Cn3cccc(O)c3=O)cc2)cc1 | > 10 µg/mL | > 10 µg/mL | 4 µg/mL (≈ 12.5 µM) | 7.5 µg/mL (≈ 23.4 µM) |  |  |
|  | CN(C)c1ccc(-c2ccc(Cn3cccc(O)c3=O)cc2)cn1 | > 10 µg/mL | > 10 µg/mL | > 40 µg/mL | 38.9 µg/mL (≈ 121 µM) |  |  |
|  | N#Cc1ccc(-c2ccc(Cn3cccc(O)c3=O)cc2)cc1 | > 10 µg/mL | 3.5 µg/mL (≈ 11.6 µM) | 5 µg/mL (≈ 16.5 µM) | 4.6 µg/mL (≈ 15.2 µM) |  |  |
|  | CN(C)c1ccc(-n2cc(Cn3cccc(O)c3=S)nn2)cc1 | > 10 µg/mL | 1.5 µg/mL (≈ 4.58 µM) | 5.3 µg/mL (≈ 16.2 µM) | 1.3 µg/mL (≈ 3.97 µM) |  |  |
|  | Oc1cccn(Cc2cn(-c3ccccc3)nn2)c1=S | > 10 µg/mL | 2.7 µg/mL (≈ 9.5 µM) | 6.2 µg/mL (≈ 21.8 µM) | 3.2 µg/mL (≈ 11.3 µM) |  |  |
|  | CN(C)c1ccc(-c2ccc(Cn3cccc(O)c3=S)cc2)cn1 | > 10 µg/mL | 2.6 µg/mL (≈ 7.7 µM) | 6.1 µg/mL (≈ 18.1 µM) | 2.3 µg/mL (≈ 6.82 µM) |  |  |
|  | CN(C)c1ccc(-c2ccc(Cn3cccc(O)c3=S)cc2)cc1 | > 10 µg/mL | 0.3 µg/mL (≈ 0.892 µM) | 7.4 µg/mL (≈ 22 µM) | 0.2 µg/mL (≈ 0.594 µM) | 5 |  |
| 7.75 µM | Cc1ccccc1-c1ccc(Cn2cccc(O)c2=S)cc1 | > 10 µg/mL | 2.1 µg/mL (≈ 6.83 µM) | 34.4 µg/mL (≈ 112 µM) | 0.3 µg/mL (≈ 0.976 µM) |  | 13.6 µM |
